Measurements published in PubChem BioAssay AID651630 (Sanford-Burnham Center for Chemical Genomics, 2012).
The source made the active and inactive calls.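 How the source made its calls: active means lipid-stain IC50 at or below a set limit, with nuclear-stain toxicity IC50 at least five times higher; inactive means the rest.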

How the values were obtained:
DAPI = experiment: triacylglycerol accumulation inhibitor potency, dose response, cell-based, panel, Nile Red and DAPI fluorescence, H9c2 (AID 651630); conditions: H9c2 cells, DAPI nuclear fluorescence (cytotoxicity counter-readout), oleic acid;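 further: cells exposed to compound overnight before fixation and staining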
TAG = experiment: as above; conditions: H9c2 cells, Nile Red TAG fluorescence, oleic acid

SMILES	IC50 cytotoxicity (DAPI nuclear signal decrease) (DAPI; run 1)	IC50 cytotoxicity (DAPI nuclear signal decrease) (DAPI; run 2)	IC50 (TAG; mean of runs)	IC50 (TAG; run 1)	IC50 (TAG; run 2)	IC50 cytotoxicity (DAPI nuclear signal decrease) (DAPI; mean of runs)
COc1ccc(N=C2C(=Nc3ccc(OC)cc3)N(c3ccc(OC)cc3)C(=S)N2C(=O)c2ccc(OC)cc2)cc1	> 25 µM	> 25 µM	< 0.78 µM	< 0.78 µM	< 0.78 µM	–
COc1ccc(C2c3cc4c(cc3OC(N3CCOCC3)C2C)OCO4)c(OC)c1 (centres undefined)	> 25 µM	> 25 µM	10.1 µM	6.4 µM	13.8 µM	> 25 µM (inactive)
CCN(C(=O)COC(=O)c1cc(-c2ccccc2)nc2c1c(C)nn2-c1ccc(C)cc1)C1CCS(=O)(=O)C1 (centres undefined)	> 25 µM	> 25 µM	> 25 µM (inactive)	> 25 µM	> 25 µM	> 25 µM (inactive)
O=C(c1cnn2c1NC(c1ccc(Br)cc1)CC2C(F)(F)F)N1CCN(C23CC4CC(CC(C4)C2)C3)CC1 (centres undefined)	> 25 µM	> 25 µM	> 25 µM (inactive)	> 25 µM	> 25 µM	> 25 µM (inactive)
CC1(C)CC(=O)C2=C(C1)Oc1nc3ccccc3cc1C2C(C#N)C#N (centres undefined)	11.4 µM	14 µM	17.2 µM (inactive)	16.5 µM	17.8 µM	12.7 µM (inactive)
COC(=O)C1=C(C)N(Cc2ccccc2)C(=NCc2cc(OC)c(OC)c(OC)c2)N[C@H]1c1ccc(Br)cc1	> 25 µM	> 25 µM	> 25 µM (inactive)	> 25 µM	> 25 µM	> 25 µM (inactive)
CN1CSC(=S)N(C)C1	> 25 µM	> 25 µM	> 25 µM (inactive)	> 25 µM	> 25 µM	> 25 µM (inactive)
Cn1nnnc1Sc1ncnc2scc(-c3cccc(S(C)(=O)=O)c3)c12	> 25 µM	> 25 µM	> 25 µM (inactive)	> 25 µM	> 25 µM	> 25 µM (inactive)
Cc1onc(-c2ccccc2)c1C(=O)Nc1cc(C(F)(F)F)ccc1N1CCOCC1	> 25 µM	> 25 µM	20.1 µM (inactive)	15.4 µM	24.8 µM	> 25 µM (inactive)
CO/N=C\CC(=O)Nc1ccc(Oc2ccccc2)cc1	> 25 µM	> 25 µM	7.97 µM	9.14 µM	6.8 µM	> 25 µM (inactive)
COc1ccc(Nc2cc(=O)oc3ccccc23)cc1	> 25 µM	> 25 µM	> 25 µM (inactive)	> 25 µM	> 25 µM	> 25 µM (inactive)
O=C(Nc1cccc(Cl)c1)c1nc[nH]c1C(=O)NCCCNC(=O)c1[nH]cnc1C(=O)Nc1cccc(Cl)c1	> 25 µM	> 25 µM	–	9.63 µM	> 25 µM	> 25 µM (inactive)
COc1cccc(C2c3c(C)nn(-c4ccc([N+](=O)[O-])cc4)c3N=C3C(=O)Nc4ccccc4N32)c1 (centres undefined)	> 25 µM	> 25 µM	7.79 µM	7.32 µM	8.26 µM	> 25 µM (inactive)
CCN(CC)CCNC(=O)C(Cl)=C1C(Cl)=C(Cl)C(Cl)=C1Cl	20.2 µM	22.7 µM	> 25 µM (inactive)	> 25 µM	> 25 µM	21.4 µM (inactive)
Cc1ccc(CN(C(=O)c2csnn2)C(C(=O)NC2CCCC2)c2ccc(C)o2)cc1 (centres undefined)	> 25 µM	> 25 µM	> 25 µM (inactive)	> 25 µM	> 25 µM	> 25 µM (inactive)
C=CCn1c(N)c(C(=O)Nc2ccccc2)c2nc3ccccc3nc21	> 25 µM	> 25 µM	6.11 µM	6.18 µM	6.04 µM	> 25 µM (inactive)
CCC1=Nc2cc(C(=O)NCCCOC)ccc2Sc2ccccc21	> 25 µM	> 25 µM	> 25 µM (inactive)	> 25 µM	> 25 µM	> 25 µM (inactive)
COc1cc(C2C(C#N)=C(N)Oc3cc4c(cc32)OCO4)cc(OC)c1OC (centres undefined)	> 25 µM	> 25 µM	–	> 25 µM	3.52 µM	> 25 µM (inactive)
COc1ccc(NC(=O)Cn2c(=O)n(-c3ccc(CC(=O)NCc4ccco4)cc3)c(=O)c3ccccc32)cc1	> 25 µM	> 25 µM	–	24.7 µM	> 25 µM	> 25 µM (inactive)
CC(=O)OCC(=O)[C@@]12OC3(CCCC3)O[C@@H]1C[C@H]1[C@@H]3CCC4=CC(=O)C=C[C@]4(C)[C@@]3(F)[C@@H](O)C[C@@]12C	> 25 µM	> 25 µM	2.83 µM	2.71 µM	2.95 µM	–
CCOc1ccccc1NC(=O)C1CCN(C(=O)NCc2ccccc2)CC1	> 25 µM	> 25 µM	> 25 µM (inactive)	> 25 µM	> 25 µM	> 25 µM (inactive)
CCOc1c(Br)cc(CNC2CCCCCCC2)cc1OC	18.8 µM	20.6 µM	> 25 µM (inactive)	> 25 µM	> 25 µM	19.7 µM (inactive)
C#CCN(C[C@@H]1[C@@H](OC(=O)NCC2CCCCC2)[C@@H](OC(=O)NCC2CCCCC2)CN(C(=O)OC(C)C)N1C(=O)OC(C)C)S(=O)(=O)c1ccc(C)cc1	> 25 µM	> 25 µM	10.6 µM	10.1 µM	11.2 µM	> 25 µM (inactive)
O=C(c1ccoc1)N1CCN(c2cc(-c3cccc(F)c3)nc3cc(-c4cccc(Cl)c4)nn23)CC1	> 25 µM	> 25 µM	> 25 µM (inactive)	> 25 µM	> 25 µM	> 25 µM (inactive)
